In brackets after ≈: the same amount, converted by molar mass. Read-outs that look alike come from different tables or passages of the source. Numbered stars: 1 amine (or outer) side, 2 acyl side, 3 side chain; on linkers, the order of the positions; unused ones are H or OH. Bridge positions count the residues as written; N and C are the ends. Side chains are listed from the residue outwards. Peptide text beside a SMILES is read from it. * marks the point of attachment. C20 diacid = O=C(O)CCCCCCCCCCCCCCCCCCC(=O)*; γGlu = O=C(O)[C@H](CCC(=O)[*:2])N[*:1]; AEEA = NCCOCCOCC(=O)O
Legend:
[1] = target: T1, human amylin receptor (membranes from Amylin 3(a)/CRE-luc cells) (Homo sapiens, UniProt O60896+P30988); experiment: ASSAY (V) binding to the human amylin receptor (SPA, 125I-rat amylin); settings: for IC50: Table 4, read-out: hAmylin-R bind IC50;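 for all read-outs here: competition binding of cell membranes (35 ng/µL) mixed with SPA beads in 384-well plates at 40 µL total volume, read by scintillation counting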
T1 construct: expressed in transfected cells
T1 sequence (P30988 25-474): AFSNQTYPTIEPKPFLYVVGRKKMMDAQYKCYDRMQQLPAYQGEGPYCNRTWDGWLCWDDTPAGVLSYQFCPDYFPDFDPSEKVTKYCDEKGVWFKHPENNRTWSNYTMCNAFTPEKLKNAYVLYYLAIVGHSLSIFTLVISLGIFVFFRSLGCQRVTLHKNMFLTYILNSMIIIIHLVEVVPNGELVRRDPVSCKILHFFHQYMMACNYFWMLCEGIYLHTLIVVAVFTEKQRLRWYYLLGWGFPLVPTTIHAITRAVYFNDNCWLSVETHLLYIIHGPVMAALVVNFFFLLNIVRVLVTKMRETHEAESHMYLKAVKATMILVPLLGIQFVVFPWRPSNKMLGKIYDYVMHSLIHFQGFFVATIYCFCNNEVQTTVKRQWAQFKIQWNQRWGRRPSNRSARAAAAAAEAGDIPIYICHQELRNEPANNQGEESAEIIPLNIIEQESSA
T1 sequence (O60896 24-148 partner): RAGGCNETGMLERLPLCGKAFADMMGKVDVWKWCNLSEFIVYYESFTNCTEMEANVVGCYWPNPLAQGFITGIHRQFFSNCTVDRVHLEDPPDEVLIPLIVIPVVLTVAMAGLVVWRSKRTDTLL

[2] = target: T2, rat amylin receptor (rat calcitonin receptor + rat RAMP 3) (Rattus norvegicus, UniProt P32214+Q9JJ73); experiment: ASSAY (VI) binding to the rat amylin receptor; settings: for IC50: binding to rat amylin receptor, read-out: rAmylin-R bind IC50
T2 construct: expressed in transfected cells; host or cells: BHK tk'ts 13 (transient, FuGENE 6), membranes
T2 sequence (P32214 25-479 isoform P32214-2 limits assumed): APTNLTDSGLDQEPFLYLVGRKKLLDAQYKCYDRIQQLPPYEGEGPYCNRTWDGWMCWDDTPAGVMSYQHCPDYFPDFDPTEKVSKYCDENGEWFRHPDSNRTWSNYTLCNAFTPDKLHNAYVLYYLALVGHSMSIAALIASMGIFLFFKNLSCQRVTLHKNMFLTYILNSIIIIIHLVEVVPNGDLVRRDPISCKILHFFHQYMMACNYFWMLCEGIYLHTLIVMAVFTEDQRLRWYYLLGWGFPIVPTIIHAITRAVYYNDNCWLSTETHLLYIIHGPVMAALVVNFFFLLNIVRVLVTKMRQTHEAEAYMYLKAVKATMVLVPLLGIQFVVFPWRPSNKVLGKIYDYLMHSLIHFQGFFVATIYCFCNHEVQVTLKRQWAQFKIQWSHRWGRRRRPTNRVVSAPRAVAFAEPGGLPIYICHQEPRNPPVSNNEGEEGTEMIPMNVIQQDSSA
T2 sequence (Q9JJ73 23-147 partner): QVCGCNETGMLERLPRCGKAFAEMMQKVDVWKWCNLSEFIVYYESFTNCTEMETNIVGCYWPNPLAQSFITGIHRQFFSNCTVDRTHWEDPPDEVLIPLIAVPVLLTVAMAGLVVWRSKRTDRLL
In short: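 Binding to the rat amylin receptor was determined with membrane preparations. The receptor was expressed by transiently transfecting BHK tk′ts 13 cells with rat calcitonin receptor, using FuGENE® 6 (Roche) according to the manufacturer's recommendations. Roughly 48 hours later the cells were harvested and their membranes isolated.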

[3] = target: T3, human amylin 3(a) receptor (human calcitonin receptor + RAMP-3) in BHK570 cells (Homo sapiens, UniProt O60896+P30988); experiment: ASSAY (II)a functional assay, human amylin receptor (CRE luciferase); assay type: cell-based; settings: for EC50: human amylin receptor functional potency, assay (II), read-out: hAmylin-R funct. EC50
T3 construct: expressed in transfected cells
In short: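 BHK cells stably carrying a CRE-luciferase reporter plus calcitonin receptor, or calcitonin receptor with RAMP-3 for the amylin 3(a) receptor, were seeded and kept overnight at 37° C. Compounds were added in assay medium with 10% FBS and 10 mM Hepes, pH 7.4, for 3 hours at 37° C, then luminescence was counted.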

rat calcitonin receptor = target: T4, rat calcitonin receptor (Rattus norvegicus, UniProt P32214); experiment: ASSAY (VIII) binding to the rat calcitonin receptor; settings: Table 7, read-out: rCTR bind IC50
T4 construct: expressed in transfected cells; host or cells: BHK tk'ts 13 (transient, FuGENE 6), membranes
T4 sequence (P32214 25-479 isoform P32214-2 limits assumed): T2 sequence (P32214 25-479 isoform P32214-2 limits assumed)
In short: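 Membranes were prepared from BHK tk′ts 13 cells transiently transfected with rat calcitonin receptor. Cells were grown in DMEM with 10% FBS and harvested approximately 48 hours after transfection.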

[4] = ASSAY (IV) determination of solubility; assay type: physicochemical
In short: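 Polypeptide in water at […] mixed 1:1 with 100 mM buffers of pH 3.0-8.0 (glycylglycine pH 3-5, bistrispropane pH 6-8). Held 18 h at room temperature, then centrifuged; concentration remaining in solution measured by UPLC.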

[5] = Table 5, selectivity, hCTR bind IC50 / hAmylin-R bind IC50
[6] = Table 5a, selectivity, hCTR bind IC50 / hAmylin-R bind IC50
[7] = Table 5b, selectivity, hCTR bind IC50 / hAmylin-R bind IC50
[8] = Table 5c, selectivity, hCTR bind IC50 / hAmylin-R bind IC50
[9] = Table 7, human binding selectivity, included for comparison
[10] = Table 7a (preferred compounds), human binding selectivity, included for comparison
[11] = ratio of human calcitonin receptor binding IC50 to human amylin receptor binding IC50
[12] = Table 7, rat binding selectivity, rCTR IC50 / rAmylin-R IC50
[13] = Table 7a (preferred compounds), rat binding selectivity, rCTR IC50 / rAmylin-R IC50
[14] = ratio of rCTR bind IC50 to rAmylin-R bind IC50
[15] = hCTR funct. EC50 divided by hAmylin-R funct. EC50
[16] = hCTR funct. EC50 over hAmylin-R funct. EC50
[17] = human functional selectivity: hCTR funct. EC50 / hAmylin-R funct. EC50
[18] = bistrispropane buffer, pH 6.5, read-out: Solubility pH 6.5 Concentration
[19] = bistrispropane buffer, pH 7.5, read-out: Solubility pH 7.5 Concentration
[20] = bistrispropane buffer, pH 6.0, read-out: Solubility pH 6.0 Concentration
[21] = bistrispropane buffer, pH 7.0, read-out: Solubility pH 7.0 Concentration
[22] = bistrispropane buffer, pH 8.0, read-out: Solubility pH 8.0 Concentration
[23] = glycylglycine buffer, pH 3.0, read-out: Solubility pH 3.0 Concentration
[24] = glycylglycine buffer, pH 4.0, read-out: Solubility pH 4.0 Concentration
[25] = glycylglycine buffer, pH 5.0, read-out: Solubility pH 5.0 Concentration

Ratio hCT/hAmylin binding [1, 5] | Ratio hCT/hAmylin binding [1, 6] | Ratio hCT/hAmylin binding [1, 7] | Ratio hCT/hAmylin binding [1, 8] | Ratio hCT/hAmylin binding [1, 9] | Ratio hCT/hAmylin binding [1, 10] | Ratio hCT/hAmylin binding [1, 11] | IC50 ([2]; Table 7) [nM] | Ratio rCT/rAmylin binding [2, 12] | Ratio rCT/rAmylin binding [2, 13] | Ratio rCT/rAmylin binding [2, 14] | Ratio hCT/hAmylin funct. [3, 15] | Ratio hCT/hAmylin funct. [3, 16] | Ratio hCT/hAmylin funct. [3, 17] | IC50 (rat calcitonin receptor) [nM] | solubility at 18 h [4, 18] [µM] | solubility at 18 h [4, 19] [µM] | solubility at 18 h [4, 20] [µM] | solubility at 18 h [4, 21] [µM] | solubility at 18 h [4, 22] [µM] | Compound | also measured
80.0 | 80.0 | 80.0 | 80.0 | 80.0 | 80.0 | 80.0 | 0.686 | 56.8 | 56.8 | 56.8 | 24.8 | 24.8 | 24.8 | 38.9 | ≥ 200 | ≥ 200 | ≥ 200 | ≥ 200 | 140 (≈ 638 µg/mL) | CC[C@H](C)[C@H](NC(=O)[C@H](C)NC(=O)CNC(=O)[C@H](Cc1ccccc1)NC(=O)[C@H](CC(N)=O)NC(=O)[C@@H]1CCCN1C(=O)[C@H](CO)NC(=O)[C@H](CO)NC(=O)[C@H](Cc1c[nH]cn1)NC(=O)[C@H](CCCNC(=N)N)NC(=O)[C@H](CC(C)C)NC(=O)[C@H](Cc1ccccc1)NC(=O)[C@H](CC(N)=O)NC(=O)[C@H](C)NC(=O)[C@H](CC(C)C)NC(=O)[C@H](CCCNC(=N)N)NC(=O)[C@H](CCC(N)=O)NC(=O)[C@@H](NC(=O)[C@H](C)NC(=O)[C@@H]1CSSC[C@H](NC(=O)[C@@H](N)CCCCNC(=O)COCCOCCNC(=O)CC[C@H](NC(=O)CCCCCCCCCCCCCCCCCCC(=O)O)C(=O)O)C(=O)N[C@@H](CC(N)=O)C(=O)N[C@@H]([C@@H](C)O)C(=O)N[C@@H](C)C(=O)N[C@@H]([C@@H](C)O)C(=O)N1)[C@@H](C)O)C(=O)N1CCC[C@H]1C(=O)N[C@@H](CO)C(=O)N[C@@H](CO)C(=O)N[C@H](C(=O)N[C@@H](CC(N)=O)C(=O)N[C@H](C(=O)NCC(=O)N[C@@H](Cc1c[nH]cn1)C(=O)N[C@@H](CC(N)=O)C(=O)N[C@H](C(=O)N[C@@H](Cc1ccc(O)cc1)C(N)=O)[C@@H](C)O)C(C)C)[C@@H](C)O [Example 76] (H-K([AEEA-γGlu-C20 diacid])CNTATCATQRLANFLRHSSPNFGAIPSSTNVGHNTY-NH2; disulfide 2-7; N-terminus assumed) | IC50 [1]: 0.215 nM; EC50 [3]: 0.297 nM; solubility at 18 h [4, 23]: ≥ 200 µM; solubility at 18 h [4, 24]: ≥ 200 µM; solubility at 18 h [4, 25]: ≥ 200 µM
25.0 | 25.0 | 25.0 | 25.0 | 25.0 | 25.0 | 25.0 | 1.12 | 71.3 | 71.3 | 71.3 | 8.9 | 8.9 | 8.9 | 79.9 | ≥ 200 | ≥ 200 | ≥ 200 | ≥ 200 | ≥ 200 | CC[C@H](C)[C@H](NC(=O)[C@H](C)NC(=O)CNC(=O)[C@H](Cc1ccccc1)NC(=O)[C@H](CC(N)=O)NC(=O)[C@@H]1CCCN1C(=O)[C@H](CO)NC(=O)[C@H](CO)NC(=O)[C@H](Cc1c[nH]cn1)NC(=O)[C@H](CCCNC(=N)N)NC(=O)[C@H](CC(C)C)NC(=O)[C@H](Cc1ccccc1)NC(=O)[C@H](CC(N)=O)NC(=O)[C@H](C)NC(=O)[C@H](CC(C)C)NC(=O)[C@H](CCCNC(=N)N)NC(=O)[C@H](CCC(N)=O)NC(=O)[C@@H](NC(=O)[C@H](C)NC(=O)[C@@H]1CSSC[C@H](NC(=O)[C@H](CCCCN)NC(=O)CC[C@H](NC(=O)CCCCCCCCCCCCCCCCCCC(=O)O)C(=O)O)C(=O)N[C@@H](CC(N)=O)C(=O)N[C@@H]([C@@H](C)O)C(=O)N[C@@H](C)C(=O)N[C@@H]([C@@H](C)O)C(=O)N1)[C@@H](C)O)C(=O)N1CCC[C@H]1C(=O)N[C@@H](CO)C(=O)N[C@@H](CO)C(=O)N[C@H](C(=O)N[C@@H](CC(N)=O)C(=O)N[C@H](C(=O)NCC(=O)N[C@@H](CO)C(=O)N[C@@H](CCC(=O)O)C(=O)N[C@H](C(=O)N[C@@H](Cc1ccc(O)cc1)C(N)=O)[C@@H](C)O)C(C)C)[C@@H](C)O [Example 23] | solubility at 18 h [4, 23]: ≥ 200 µM; solubility at 18 h [4, 24]: ≥ 200 µM; solubility at 18 h [4, 25]: ≥ 200 µM
82.4 | 82.4 | 82.4 | 82.4 | 82.4 | 82.4 | 82.4 | 1.16 | 93.2 | 93.2 | 93.2 | 38.6 | 38.6 | 38.6 | 108 | ≥ 200 | ≥ 200 | ≥ 200 | ≥ 200 | ≥ 200 | CC[C@H](C)[C@H](NC(=O)[C@H](C)NC(=O)CNC(=O)[C@H](Cc1ccccc1)NC(=O)[C@H](CC(N)=O)NC(=O)[C@@H]1CCCN1C(=O)[C@H](CO)NC(=O)[C@H](CO)NC(=O)[C@H](Cc1c[nH]cn1)NC(=O)[C@H](CCCNC(=N)N)NC(=O)[C@H](CC(C)C)NC(=O)[C@H](Cc1ccccc1)NC(=O)[C@H](CCCNC(=N)N)NC(=O)[C@H](C)NC(=O)[C@H](CC(C)C)NC(=O)[C@H](CCCNC(=N)N)NC(=O)[C@H](CCC(N)=O)NC(=O)[C@@H](NC(=O)[C@H](C)NC(=O)[C@@H]1CSSC[C@H](NC(=O)[C@@H](N)CCCCNC(=O)CC[C@H](NC(=O)CCCCCCCCCCCCCCCCCCC(=O)O)C(=O)O)C(=O)N[C@@H](CC(N)=O)C(=O)N[C@@H]([C@@H](C)O)C(=O)N[C@@H](C)C(=O)N[C@@H]([C@@H](C)O)C(=O)N1)[C@@H](C)O)C(=O)N1CCC[C@H]1C(=O)N[C@@H](CO)C(=O)N[C@@H](CO)C(=O)N[C@H](C(=O)N[C@@H](CC(N)=O)C(=O)N[C@H](C(=O)NCC(=O)N1CCC[C@H]1C(=O)N[C@@H](CC(N)=O)C(=O)N[C@H](C(=O)N[C@@H](Cc1ccc(O)cc1)C(N)=O)[C@@H](C)O)C(C)C)[C@@H](C)O [Example 65] (H-K([γGlu-C20 diacid])CNTATCATQRLARFLRHSSPNFGAIPSSTNVGPNTY-NH2; disulfide 2-7 (inferred); N-terminus assumed) | IC50 [1]: 0.649 nM; EC50 [3]: 0.242 nM; solubility at 18 h [4, 23]: ≥ 200 µM; solubility at 18 h [4, 24]: ≥ 200 µM; solubility at 18 h [4, 25]: ≥ 200 µM
